Data: patent US4308269A, “Maytansinoids, pharmaceutical compositions thereof and method of use thereof” (Takeda Chemical Industries, Ltd., priority 1979, dated 1981)
Values after ≈ are worked out from the molar mass of the structure shown.

Tests used:
[1] = test system: Tetrahymena pyriformis W; assay: Antiprotozoal activity, growth inhibition by the serial dilution method; assay type: cell-based; conditions: 28° C., 44 to 48 hours, pH 7.0
Procedure: Antioprotozoal activity of compound (I) was assayed with Tetrahymena pyriformis W as the test organism and a medium composed of 20 g tryptose-peptone (Difco Co.), 1 g yeast extract, 2 g glucose, 1000 ml distilled water, 10 ml 1 M phosphate buffer (pH 7.0) as the assay medium. The micoorganism was incubated at 28° C. for 44 to 48 hours and the growth inhibitory activity of compound (I) was assayed by the serial dilution method.

[2] = test system: melanoma B-16 tumor cells; assay: Antitumor activity, B-16 melanoma transplanted intraperitoneally in mice (NCI protocol 1,300), life span prolongation; assay type: in vivo; conditions: intraperitoneally once daily for 9 consecutive days
Procedure: Therapeutic tests were carried out in mice according to NCI-protocol 1,300, Cancer Chemother, Reports, Part 3, 1972, Vol. 3, No. 2, in which melanoma B-16 tumor cells had been intraperitoneally transplanted, compound (I) being administered intraperitoneally once daily for 9 consecutive days.

With `COc1cc2cc(c1Cl)N(C)C(=O)CC(OC(=O)C(N)c1ccccc1)C1(C)OC1C(C)C1CC(O)(NC(=O)O1)C(OC)/C=C/C=C(\C)C2` (single isomer, unassigned) [maytansinol 3-α-aminophenylacetate] the MIC [1] was 10 to 20 µg/mL (≈ 14.3 to 28.6 µM), the “Antitumor activities B-16 (T/C%)” value ([2]; dose 100 μg/kg) was 208% and the “Antitumor activities B-16 (T/C%)” value ([2]; dose 400 μg/kg) was 208%. The “Antitumor activities B-16 (T/C%)” value ([2]; dose 800 μg/kg) was 208%.
